For this test, the target named is Large T antigen (Simian virus 40) (UniProt P03070). In words: TAg ATPase/helicase activity blockers – biochemical (AID 1903). Particulars: SV40 large T antigen ATPase/helicase inhibition assay.

pIC50: −log10 of the molar value.

Chain of Large T antigen (Simian virus 40) (P03070 whole entry, looked up): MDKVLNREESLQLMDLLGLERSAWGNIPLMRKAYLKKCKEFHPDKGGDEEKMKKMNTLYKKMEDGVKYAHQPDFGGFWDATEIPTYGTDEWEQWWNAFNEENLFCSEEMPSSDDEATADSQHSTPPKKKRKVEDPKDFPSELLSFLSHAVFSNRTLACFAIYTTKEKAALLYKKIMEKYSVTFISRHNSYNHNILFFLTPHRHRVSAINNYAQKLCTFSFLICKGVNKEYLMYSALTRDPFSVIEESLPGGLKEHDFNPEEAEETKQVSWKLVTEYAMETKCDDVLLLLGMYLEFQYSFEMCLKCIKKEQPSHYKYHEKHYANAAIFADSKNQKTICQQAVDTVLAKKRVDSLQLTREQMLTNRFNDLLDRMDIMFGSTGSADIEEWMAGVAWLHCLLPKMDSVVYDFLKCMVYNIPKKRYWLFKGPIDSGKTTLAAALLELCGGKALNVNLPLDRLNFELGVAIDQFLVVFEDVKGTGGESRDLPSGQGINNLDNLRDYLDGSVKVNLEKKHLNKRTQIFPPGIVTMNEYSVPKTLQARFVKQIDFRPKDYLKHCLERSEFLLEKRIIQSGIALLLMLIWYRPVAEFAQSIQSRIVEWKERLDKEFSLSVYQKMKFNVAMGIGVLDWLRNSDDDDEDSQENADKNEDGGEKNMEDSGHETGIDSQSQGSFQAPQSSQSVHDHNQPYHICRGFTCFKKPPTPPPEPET

Take `C#CCOCCOCCOCCNc1nc(N2CCN(C(=O)CCCCCCCCCCNC(=O)[C@H]([C@@H](C)CC)n3cc(CCCCN=C(N)N)nn3)CC2)nc(N2CCN(C(=O)CCCCCCCCCCNC(=O)[C@H](CCCCN)n3cc(C[C@@H](C)CC)nn3)CC2)n1`: the pIC50 (commonly the negative decadic logarithm of the IC50, by convention in mol/L) was 4.88.
As to `C[c-]1[c-](C)[c-](C)[c-](C)[c-]1C.[Fe].c1cc2nccc(N3CCCC3)[c-]2c1` (centres undefined), the negative-log IC50 (pIC50) was 4.76.
The result for `O=C(O)CCC1c2cc3c4cc2OC2Oc5cc6c(cc51)C(CCC(=O)O)c1cc5c7cc1OC(O6)c1cc6cc(c1)Oc1cc(cc(C(=O)O)c1)Oc1cc8cc(c1)C(Oc1cc(c(cc1C5CCC(=O)O)C3CCC(=O)O)OC(O4)c1cc(cc(c1)Oc1cc(cc(C(=O)O)c1)O8)Oc1cc(cc(C(=O)O)c1)Oc1cc(cc2c1)Oc1cc(cc(C(=O)O)c1)O6)O7` (centres undefined) reads more than 6.41.
The result for `O=C(O)c1cc[c]([Hg][Cl])cc1` reads 5.90; that for `C#CCOCCOCCOCCNc1nc(N2CCN(C(=O)CCCCCCCCCCNC(=O)[C@H](CCCN=C(N)N)n3cc(C[C@@H](C)CC)nn3)CC2)nc(N2CCN(C(=O)CCCCCCCCCCNC(=O)[C@@H]([C@H](C)CC)n3cc(CCCCCN)nn3)CC2)n1`, 4.73.
For `C#CCOCCOCCOCCNc1nc(N2CCN(C(=O)CCCCCCCCCCNC(=O)[C@H]([C@@H](C)CC)n3cc(CCCCN=C(N)N)nn3)CC2)nc(N2CCN(C(=O)CCCCCCCCCCNC(=O)[C@H](CCCN=C(N)N)n3cc(C[C@@H](C)CC)nn3)CC2)n1` the value was 4.99; for `CCCCC1(C)OC(=O)C(=Cc2ccc(-c3ccc(Cl)c(C(=O)O)c3)o2)C(=O)O1` (centres undefined), 4.76.
In the case of `C[CH2][Hg][S]c1ccccc1C(=O)O`, the pIC50 is 4.49.
`C#CCOCCOCCOCCNc1nc(N2CCN(C(=O)CCCCCCCCCCNC(=O)[C@H]([C@@H](C)CC)n3cc(CCCCN=C(N)N)nn3)CC2)nc(N2CCN(C(=O)CCCCCCCCCCNC(=O)[C@H]([C@@H](C)CC)n3cc(CCCCN=C(N)N)nn3)CC2)n1`: the negative logarithm of the IC50 (pIC50) is 5.29.
